Assay [1] concerns the target Hepatocyte growth factor receptor (Homo sapiens, UniProt P08581). The experiment in a line: Kinase Selectivity Assay. From the text: (§1) The specificity of LFM-A13 was further examined against a broad panel of serine-threonine kinases and tyrosine kinases using the KinaseProfiler Assay protocols from Upstate (Charlottesville, Virginia).
Assay [2] has as its target T1, Cytoplasmic tyrosine-protein kinase BMX (Homo sapiens, UniProt P51813).
T1 sequence (P51813 whole entry): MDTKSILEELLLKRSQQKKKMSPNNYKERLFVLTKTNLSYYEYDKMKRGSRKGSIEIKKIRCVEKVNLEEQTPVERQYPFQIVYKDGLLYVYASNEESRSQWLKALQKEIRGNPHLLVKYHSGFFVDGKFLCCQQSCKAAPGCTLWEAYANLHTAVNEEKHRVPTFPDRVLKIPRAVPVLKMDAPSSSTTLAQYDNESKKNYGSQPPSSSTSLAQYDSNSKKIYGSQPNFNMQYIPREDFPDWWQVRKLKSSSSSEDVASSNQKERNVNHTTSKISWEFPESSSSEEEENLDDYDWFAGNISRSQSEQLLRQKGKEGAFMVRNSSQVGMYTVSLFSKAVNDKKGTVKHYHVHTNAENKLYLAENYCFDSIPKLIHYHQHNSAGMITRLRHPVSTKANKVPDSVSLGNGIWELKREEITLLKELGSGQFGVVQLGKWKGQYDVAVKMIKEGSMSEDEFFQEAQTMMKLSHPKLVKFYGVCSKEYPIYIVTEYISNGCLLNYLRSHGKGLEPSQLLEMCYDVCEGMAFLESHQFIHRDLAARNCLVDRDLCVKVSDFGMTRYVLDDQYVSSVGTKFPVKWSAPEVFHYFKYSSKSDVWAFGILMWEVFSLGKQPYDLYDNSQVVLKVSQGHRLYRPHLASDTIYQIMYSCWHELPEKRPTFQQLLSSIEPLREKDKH
The experiment in a line: Kinase Selectivity Assay.
From the text: as §1

Assay [3] concerns the target Cyclin-dependent kinase/G2/mitotic-specific cyclin- 1 (Homo sapiens, UniProt P06493). The experiment in a line: Kinase Selectivity Assay.
From the text: as §1

In assay [4] the target is Mast/stem cell growth factor receptor Kit (Homo sapiens, UniProt P10721). The assay is described as follows: Kinase Selectivity Assay.
Mast/stem cell growth factor receptor Kit, sequence (P10721 whole entry): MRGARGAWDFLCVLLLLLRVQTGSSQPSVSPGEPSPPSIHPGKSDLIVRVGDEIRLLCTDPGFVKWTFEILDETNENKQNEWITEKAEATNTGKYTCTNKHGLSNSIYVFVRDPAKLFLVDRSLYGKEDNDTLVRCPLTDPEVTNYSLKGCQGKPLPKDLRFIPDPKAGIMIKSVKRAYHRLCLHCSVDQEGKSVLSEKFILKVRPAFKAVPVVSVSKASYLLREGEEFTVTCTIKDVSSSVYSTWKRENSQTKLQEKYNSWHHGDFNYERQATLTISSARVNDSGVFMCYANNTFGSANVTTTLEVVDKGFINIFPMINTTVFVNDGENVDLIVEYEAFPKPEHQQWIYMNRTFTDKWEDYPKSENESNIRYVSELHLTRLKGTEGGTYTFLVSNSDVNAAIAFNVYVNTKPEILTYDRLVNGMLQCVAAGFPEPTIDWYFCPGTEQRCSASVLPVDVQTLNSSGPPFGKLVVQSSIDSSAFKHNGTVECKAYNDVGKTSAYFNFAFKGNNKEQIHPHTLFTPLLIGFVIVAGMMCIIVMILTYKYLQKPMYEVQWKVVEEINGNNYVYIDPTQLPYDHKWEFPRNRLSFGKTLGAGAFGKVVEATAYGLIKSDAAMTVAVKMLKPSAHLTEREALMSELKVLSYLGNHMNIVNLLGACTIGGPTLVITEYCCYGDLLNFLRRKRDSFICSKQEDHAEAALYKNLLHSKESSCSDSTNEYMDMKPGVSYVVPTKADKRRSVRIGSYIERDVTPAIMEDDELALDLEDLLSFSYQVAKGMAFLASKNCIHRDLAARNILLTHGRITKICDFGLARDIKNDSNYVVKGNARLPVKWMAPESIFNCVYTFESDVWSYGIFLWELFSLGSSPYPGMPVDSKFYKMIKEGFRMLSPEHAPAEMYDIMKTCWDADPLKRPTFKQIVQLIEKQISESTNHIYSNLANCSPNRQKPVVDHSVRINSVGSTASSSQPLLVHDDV
From the text: as §1

The target of assay [5] is Tyrosine-protein kinase Fyn (Homo sapiens, UniProt P06241). The experiment in a line: Kinase Selectivity Assay.
Tyrosine-protein kinase Fyn, sequence (P06241 whole entry): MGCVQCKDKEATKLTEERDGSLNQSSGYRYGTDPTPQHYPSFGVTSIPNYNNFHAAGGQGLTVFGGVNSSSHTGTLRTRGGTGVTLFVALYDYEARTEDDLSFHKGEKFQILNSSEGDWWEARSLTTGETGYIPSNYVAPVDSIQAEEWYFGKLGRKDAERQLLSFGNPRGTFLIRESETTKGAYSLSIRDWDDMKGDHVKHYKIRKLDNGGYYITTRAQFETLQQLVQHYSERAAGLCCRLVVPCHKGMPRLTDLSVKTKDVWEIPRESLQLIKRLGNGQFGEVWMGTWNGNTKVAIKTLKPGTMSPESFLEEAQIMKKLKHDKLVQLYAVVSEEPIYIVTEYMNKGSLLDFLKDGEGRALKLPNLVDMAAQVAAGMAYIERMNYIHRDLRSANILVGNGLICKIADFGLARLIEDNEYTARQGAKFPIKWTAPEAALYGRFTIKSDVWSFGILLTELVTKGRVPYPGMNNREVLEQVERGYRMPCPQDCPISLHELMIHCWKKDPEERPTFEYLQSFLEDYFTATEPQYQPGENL
From the text: as §1

For assay [6], the target named is T2, Serine/threonine-protein kinase Chk1 (Homo sapiens, UniProt O14757).
T2 sequence (O14757 whole entry): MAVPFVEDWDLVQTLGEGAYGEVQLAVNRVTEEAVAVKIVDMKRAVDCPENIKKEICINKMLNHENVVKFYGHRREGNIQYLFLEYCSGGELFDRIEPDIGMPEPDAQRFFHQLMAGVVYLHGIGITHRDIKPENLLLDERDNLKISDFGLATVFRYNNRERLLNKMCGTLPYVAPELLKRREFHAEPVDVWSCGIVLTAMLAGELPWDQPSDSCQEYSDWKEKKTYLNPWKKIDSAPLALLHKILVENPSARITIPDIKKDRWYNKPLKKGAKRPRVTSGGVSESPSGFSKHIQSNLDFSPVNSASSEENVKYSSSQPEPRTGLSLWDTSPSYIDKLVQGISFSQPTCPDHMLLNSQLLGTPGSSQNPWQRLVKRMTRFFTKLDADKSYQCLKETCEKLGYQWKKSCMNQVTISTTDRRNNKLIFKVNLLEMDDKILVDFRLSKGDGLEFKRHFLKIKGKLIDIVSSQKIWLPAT
The experiment in a line: Kinase Selectivity Assay.
From the text: as §1

The target of assay [7] is Protein-tyrosine kinase 6 (Homo sapiens, UniProt Q13882). The assay is described as follows: Kinase Selectivity Assay.
Protein-tyrosine kinase 6, sequence (Q13882 whole entry): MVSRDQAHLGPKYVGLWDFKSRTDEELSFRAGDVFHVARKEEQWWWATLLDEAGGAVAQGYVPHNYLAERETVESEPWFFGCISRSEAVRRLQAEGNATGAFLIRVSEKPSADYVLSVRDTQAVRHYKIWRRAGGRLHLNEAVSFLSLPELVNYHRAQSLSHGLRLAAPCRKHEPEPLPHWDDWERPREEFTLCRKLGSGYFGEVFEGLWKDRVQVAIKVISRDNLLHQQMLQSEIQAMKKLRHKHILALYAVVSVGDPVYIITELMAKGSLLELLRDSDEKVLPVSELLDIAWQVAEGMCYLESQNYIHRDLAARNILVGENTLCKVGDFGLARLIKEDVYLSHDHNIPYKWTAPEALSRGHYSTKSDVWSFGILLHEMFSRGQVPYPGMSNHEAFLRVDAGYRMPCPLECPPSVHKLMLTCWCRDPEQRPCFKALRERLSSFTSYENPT
From the text: as §1

Assay [8] deals with Cyclin-A2/Cyclin-dependent kinase 2 (Homo sapiens, UniProt P24941). The experiment in a line: Kinase Selectivity Assay.
From the text: as §1

Assay [9] concerns the target Serine/threonine-protein kinase PLK3 (Homo sapiens, UniProt Q9H4B4). The assay is described as follows: PLK3 Kinase Inhibition Assay. To be noted: pH 7; 22 °C. The method, then:
The mode of human PLK3 inhibition by LFM-A13 was examined in titration experiments using increasing concentrations of [gamma-32P]ATP and purified N-terminal His6-tagged recombinant human PLK3. The Ki of PLK3 by LFM-A13 was calculated from the reciprocal plots of the intensity of phosphorylation of the substrate versus the concentration of the inhibitor. From this Dixon plot, the Ki represents the dissociation constants of the EI complex, which is determined by the point of linear intersection.

For assay [10], the target named is Serine/threonine-protein kinase PLK1 (Xenopus laevis, UniProt P70032). The assay is described as follows: Plx1 Kinase Inhibition Assay. To be noted: pH 7.5; 22 °C. The method, then: Purified Plx1 was first incubated with different concentrations of LFM-A13. The substrate, GST-Cdc25 peptide (254-316) and [gamma-32P]ATP were added and the kinase reaction allowed to proceed for 15 min at room temperature. After incubation, incorporation of radioactivity to the substrate was further quantified.

Structures are written as SMILES.

Serine/threonine-protein kinase PLK3, sequence (Q9H4B4 whole entry): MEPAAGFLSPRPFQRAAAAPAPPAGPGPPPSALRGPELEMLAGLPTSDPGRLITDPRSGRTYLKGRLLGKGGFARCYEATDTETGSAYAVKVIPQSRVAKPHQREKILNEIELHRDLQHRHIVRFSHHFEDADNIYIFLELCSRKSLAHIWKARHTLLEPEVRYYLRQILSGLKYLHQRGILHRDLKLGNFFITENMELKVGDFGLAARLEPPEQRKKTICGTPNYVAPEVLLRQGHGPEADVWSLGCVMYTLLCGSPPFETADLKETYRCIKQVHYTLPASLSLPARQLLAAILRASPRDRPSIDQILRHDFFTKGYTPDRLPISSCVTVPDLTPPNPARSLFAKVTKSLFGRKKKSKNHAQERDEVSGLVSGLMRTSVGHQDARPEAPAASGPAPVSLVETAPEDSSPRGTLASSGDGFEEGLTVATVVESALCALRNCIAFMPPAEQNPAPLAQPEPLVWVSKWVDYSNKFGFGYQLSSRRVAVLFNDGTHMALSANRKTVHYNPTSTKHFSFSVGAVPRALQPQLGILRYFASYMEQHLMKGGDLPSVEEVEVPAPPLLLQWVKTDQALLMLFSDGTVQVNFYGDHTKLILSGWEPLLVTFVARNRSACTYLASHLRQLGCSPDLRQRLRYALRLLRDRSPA
Cyclin-dependent kinase/G2/mitotic-specific cyclin- 1, sequence (P06493 whole entry): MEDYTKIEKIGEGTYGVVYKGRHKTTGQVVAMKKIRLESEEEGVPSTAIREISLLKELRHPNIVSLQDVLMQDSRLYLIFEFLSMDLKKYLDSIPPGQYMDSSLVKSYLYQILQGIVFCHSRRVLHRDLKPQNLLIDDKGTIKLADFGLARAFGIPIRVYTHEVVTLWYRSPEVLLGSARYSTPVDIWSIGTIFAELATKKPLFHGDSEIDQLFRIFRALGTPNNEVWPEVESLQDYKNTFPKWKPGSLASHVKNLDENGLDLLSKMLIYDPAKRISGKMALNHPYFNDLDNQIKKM
Cyclin-dependent kinase/G2/mitotic-specific cyclin- 1, sequence (P14635 whole entry, further chain): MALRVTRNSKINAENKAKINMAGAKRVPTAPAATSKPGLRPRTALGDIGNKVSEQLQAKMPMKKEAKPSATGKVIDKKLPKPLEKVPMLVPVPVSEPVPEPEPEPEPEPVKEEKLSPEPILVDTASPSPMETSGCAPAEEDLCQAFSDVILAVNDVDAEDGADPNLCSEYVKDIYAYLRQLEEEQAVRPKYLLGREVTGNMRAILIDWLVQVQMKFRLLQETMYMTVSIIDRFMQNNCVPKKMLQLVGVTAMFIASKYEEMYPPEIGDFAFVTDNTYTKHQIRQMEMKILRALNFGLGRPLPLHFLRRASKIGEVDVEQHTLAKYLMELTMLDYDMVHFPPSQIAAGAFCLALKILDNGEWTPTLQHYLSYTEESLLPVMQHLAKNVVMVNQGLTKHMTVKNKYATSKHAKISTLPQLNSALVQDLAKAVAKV
Hepatocyte growth factor receptor, sequence (P08581 whole entry): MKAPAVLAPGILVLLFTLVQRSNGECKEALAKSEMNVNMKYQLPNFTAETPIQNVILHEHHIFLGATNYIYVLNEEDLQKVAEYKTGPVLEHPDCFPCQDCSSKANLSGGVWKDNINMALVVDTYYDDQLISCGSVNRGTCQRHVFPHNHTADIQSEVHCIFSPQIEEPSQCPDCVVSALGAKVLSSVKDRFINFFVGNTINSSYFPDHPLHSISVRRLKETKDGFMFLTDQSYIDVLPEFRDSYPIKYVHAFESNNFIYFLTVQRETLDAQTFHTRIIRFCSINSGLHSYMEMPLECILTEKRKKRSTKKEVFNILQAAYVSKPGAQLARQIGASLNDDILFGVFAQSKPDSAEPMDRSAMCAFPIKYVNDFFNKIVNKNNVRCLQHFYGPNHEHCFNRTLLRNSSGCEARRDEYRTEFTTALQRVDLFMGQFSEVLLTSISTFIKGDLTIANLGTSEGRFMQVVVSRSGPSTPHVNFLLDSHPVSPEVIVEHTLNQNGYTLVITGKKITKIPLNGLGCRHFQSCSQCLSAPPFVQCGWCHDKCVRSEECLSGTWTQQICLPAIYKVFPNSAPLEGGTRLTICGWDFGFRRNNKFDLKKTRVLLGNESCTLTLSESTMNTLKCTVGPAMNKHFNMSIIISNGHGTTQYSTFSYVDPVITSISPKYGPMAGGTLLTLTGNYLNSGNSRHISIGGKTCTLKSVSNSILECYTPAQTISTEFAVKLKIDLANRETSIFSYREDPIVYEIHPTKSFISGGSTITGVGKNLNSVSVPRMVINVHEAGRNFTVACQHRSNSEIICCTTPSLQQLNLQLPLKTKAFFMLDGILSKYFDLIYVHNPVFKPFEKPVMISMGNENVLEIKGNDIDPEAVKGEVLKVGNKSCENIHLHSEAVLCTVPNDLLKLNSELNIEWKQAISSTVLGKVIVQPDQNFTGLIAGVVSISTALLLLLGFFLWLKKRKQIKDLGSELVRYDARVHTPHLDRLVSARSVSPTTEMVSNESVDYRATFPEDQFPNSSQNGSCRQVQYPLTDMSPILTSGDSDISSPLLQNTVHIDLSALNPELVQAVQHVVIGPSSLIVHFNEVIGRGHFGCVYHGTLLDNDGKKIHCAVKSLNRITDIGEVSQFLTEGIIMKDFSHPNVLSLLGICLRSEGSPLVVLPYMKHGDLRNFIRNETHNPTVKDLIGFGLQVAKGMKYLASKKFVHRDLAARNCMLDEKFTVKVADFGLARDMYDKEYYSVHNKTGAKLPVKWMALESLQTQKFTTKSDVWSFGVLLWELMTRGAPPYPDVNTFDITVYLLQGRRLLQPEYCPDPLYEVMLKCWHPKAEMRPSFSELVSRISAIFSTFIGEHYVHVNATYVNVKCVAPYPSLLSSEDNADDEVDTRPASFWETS

As for `CC(=O)C(C#N)C(=O)Nc1cc(Br)ccc1Br` (stereo unspecified), the half-inhibitory concentration (IC50) in assay [1] is 215 µM; in [2], 281 µM; in [3] it was above 500 µM; in assay [4], above 500 µM; in assay [5], 240 µM; in assay [6], above 500 µM. The IC50 was 267 µM in assay [7], above 500 µM in [8], 61 µM in assay [9] and 10 µM in assay [10]. This compound also gave a Ki in [9] of 7.2 µM.

By IC50 is commonly meant the midpoint of a concentration-inhibition curve. Read a low IC50 as inhibition by little substance. The term Ki denotes the equilibrium dissociation constant of an inhibitor or competing ligand from its target.

(Values after BindingDB's records for doi:10.1016/j.bmc.2006.10.050 (Paradigm Pharmaceuticals, 2007).)
